MIC data for 12 compounds are collected here from ChEMBL document CHEMBL1649542, “Outer membrane protein STM3031 (Ail/OmpX-like protein) plays a key role in the ceftriaxone resistance of Salmonella enterica serovar Typhimurium” (2009).

Holding throughout (format): functional, Salmonella enterica subsp. enterica serovar Typhimurium
Experiment [1] concerns Salmonella typhimurium. Description: Antibacterial activity against Salmonella enterica serovar Typhimurium R200 expressing Outer membrane protein STM3031 by CLSI M7-A7 agar dilution method.
The test system of experiment [2] is Salmonella typhimurium. Description: Antibacterial activity against Salmonella enterica serovar Typhimurium R200 expressing stm3031 gene deletion mutant by CLSI M7-A7 agar dilution method.
In experiment [3] the test system is Salmonella typhimurium. Description: Antibacterial activity against Salmonella enterica serovar Typhimurium 01-4 by CLSI M7-A7 agar dilution method. (In general: Agar dilution tests growth on a series of plates holding different concentrations.)
Experiment [4] deals with Salmonella typhimurium. Description: Antibacterial activity against Salmonella enterica serovar Typhimurium R5 expressing Outer membrane protein STM3031 after serial passage by Etest method.
In experiment [5] the test system is Salmonella typhimurium. Description: Antibacterial activity against Salmonella enterica serovar Typhimurium R1 expressing Outer membrane protein STM3031 after serial passage by Etest method.
For experiment [6], the system named is Salmonella typhimurium. Description: Antibacterial activity against Salmonella enterica serovar Typhimurium R70 expressing Outer membrane protein STM3031 after serial passage by Etest method.
For experiment [7], the system named is Salmonella typhimurium. Description: Antibacterial activity against Salmonella enterica serovar Typhimurium R10 expressing Outer membrane protein STM3031 after serial passage by Etest method.
The test system of experiment [8] is Salmonella typhimurium. Description: Antibacterial activity against Salmonella enterica serovar Typhimurium 01-4 by Etest method.
The subject of experiment [9] is Salmonella typhimurium. Description: Antibacterial activity against Salmonella enterica serovar Typhimurium R25 expressing Outer membrane protein STM3031 after serial passage by Etest method.
[10] abbreviates: Salmonella enterica subsp. enterica serovar Typhimurium.

≈ marks a conversion by molar mass, not a printed value.

For orientation: MIC means the lowest concentration that inhibits growth of the organism. A lower MIC goes with a more susceptible organism. Consider `Cn1nnnc1SCC1=C(C(=O)O)N2C(=O)[C@@H](NC(=O)[C@H](O)c3ccccc3)[C@H]2SC1` [CEFAMANDOLE], for which the MIC was above 256 µg/mL in the experiment with Salmonella typhimurium [1], 64 µg/mL (≈ 138 µM) against Salmonella typhimurium [2] and 2 µg/mL (≈ 4.32 µM) against Salmonella typhimurium [3].
`CO/N=C(\C(=O)N[C@@H]1C(=O)N2C(C(=O)O)=C(CSc3nc(=O)c(O)nn3C)CS[C@H]12)c1csc(N)n1` [CEFTRIAXONE]: the MIC in the experiment on Salmonella typhimurium [4] is 6 µg/mL (≈ 10.8 µM); with Salmonella typhimurium [5], 2 µg/mL (≈ 3.61 µM); in the experiment with Salmonella typhimurium [6] it was 64 µg/mL (≈ 115 µM); in the experiment on Salmonella typhimurium [1] it was above 256 µg/mL; in the experiment on Salmonella typhimurium [7], 12 µg/mL (≈ 21.6 µM); against Salmonella typhimurium [2] it was 4 µg/mL (≈ 7.21 µM). The MIC against Salmonella typhimurium [8] turned out to be 0.047 µg/mL (≈ 0.0847 µM); in the experiment with Salmonella typhimurium [3], 0.047 µg/mL (≈ 0.0847 µM); with Salmonella typhimurium [9] it was 24 µg/mL (≈ 43.3 µM).
Take `CC(=O)OCC1=C(C(=O)O)N2C(=O)[C@@H](NC(=O)Cc3cccs3)[C@H]2SC1` [CEPHALOTHIN]: the MIC against Salmonella typhimurium [1] is above 256 µg/mL; with Salmonella typhimurium [2] it was 128 µg/mL (≈ 323 µM); against Salmonella typhimurium [3], 4 µg/mL (≈ 10.1 µM).
As for `CC[C@H]1OC(=O)[C@H](C)[C@@H](O[C@H]2C[C@@](C)(OC)[C@@H](O)[C@H](C)O2)[C@H](C)[C@@H](O[C@@H]2O[C@H](C)C[C@H](N(C)C)[C@H]2O)[C@](C)(O)C[C@@H](C)C(=O)[C@H](C)[C@@H](O)[C@]1(C)O` [ERYTHROMYCIN], the MIC against Salmonella typhimurium [1] amounted to 4 µg/mL (≈ 5.45 µM); against Salmonella typhimurium [2] it was 2 µg/mL (≈ 2.73 µM); against Salmonella typhimurium [3] it was 128 µg/mL (≈ 174 µM).
The corresponding values for `CCn1cc(C(=O)O)c(=O)c2ccc(C)nc21` [NALIDIXIC ACID] are 1 µg/mL (≈ 4.31 µM), 0.5 µg/mL (≈ 2.15 µM) and 4 µg/mL (≈ 17.2 µM).
The like results for `CO[C@@H]1[C@@H](OC(N)=O)[C@@H](O)[C@H](Oc2ccc3c(O)c(NC(=O)c4ccc(O)c(CC=C(C)C)c4)c(=O)oc3c2C)OC1(C)C` [NOVOBIOCIN] were, in that order, 256 µg/mL (≈ 418 µM), 128 µg/mL (≈ 209 µM) and 256 µg/mL (≈ 418 µM).
On to `CCN1CCN(C(=O)N[C@@H](C(=O)N[C@@H]2C(=O)N3[C@@H]2SC(C)(C)[C@@H]3C(=O)O)c2ccccc2)C(=O)C1=O` [PIPERACILLIN], for which the minimum inhibitory concentration (MIC) against Salmonella typhimurium [1] was above 256 µg/mL; against Salmonella typhimurium [3] it was 256 µg/mL (≈ 495 µM).
For the compound `CO[C@H]1/C=C/O[C@@]2(C)Oc3c(C)c(O)c4c(O)c(c(/C=N/N5CCN(C)CC5)c(O)c4c3C2=O)NC(=O)/C(C)=C\C=C\[C@H](C)[C@H](O)[C@@H](C)[C@@H](O)[C@@H](C)[C@H](OC(C)=O)[C@@H]1C` [RIFAMPIN], the MIC against Salmonella typhimurium [1], in the experiment on Salmonella typhimurium [2] and with Salmonella typhimurium [3] was 16 µg/mL (≈ 19.4 µM) throughout.
As for `CN[C@@H]1[C@H](O)[C@H](NC)[C@H]2O[C@@]3(O)C(=O)C[C@@H](C)O[C@H]3O[C@@H]2[C@H]1O` [SPECTINOMYCIN], the MIC against Salmonella typhimurium [1] and against Salmonella typhimurium [3] was above 256 µg/mL in each case.
Consider `CN[C@@H]1[C@H](O[C@H]2[C@H](O[C@H]3[C@H](O)[C@@H](O)[C@H](N=C(N)N)[C@@H](O)[C@@H]3N=C(N)N)O[C@@H](C)[C@]2(O)C=O)O[C@@H](CO)[C@H](O)[C@H]1O` [STREPTOMYCIN], for which the MIC in the experiment on Salmonella typhimurium [1] came out at 256 µg/mL (≈ 440 µM); with Salmonella typhimurium [2] it was 128 µg/mL (≈ 220 µM); in the experiment on Salmonella typhimurium [3], 128 µg/mL (≈ 220 µM).
Regarding `CN(C)[C@@H]1C(O)=C(C(N)=O)C(=O)[C@@]2(O)C(O)=C3C(=O)c4c(O)cccc4[C@@](C)(O)[C@H]3C[C@@H]12` [TETRACYCLINE], the figures for the minimal inhibitory concentration (MIC) in the experiment on Salmonella typhimurium [1], with Salmonella typhimurium [2] and with Salmonella typhimurium [3] were 16 µg/mL (≈ 36 µM), 4 µg/mL (≈ 9 µM) and 8 µg/mL (≈ 18 µM), respectively.
As to GENTAMICIN, the MIC with Salmonella typhimurium [1] (setting [10]), against Salmonella typhimurium [2] (setting [10]) and in the experiment on Salmonella typhimurium [3] (setting [10]) was 1 µg/mL each time.
